In US6548539B1, “Agents for regulation of colon cancer gene expression” (Avalon Pharmaceuticals, priority 2001, dated 2003):

Key:
Format in all cases: cell-based, human
Details in all cases: HT29 cell line (colon tumor), compound 10 μM, 24 hours, vs control
[1] = tested on: Gene 7; assay: Gene modulating activity in colon cancer cells (RT-PCR RNA expression), Gene 7
Procedure: (§1) In such assays, primary cells, or tissue samples, are maintained in growth medium and are treated with compounds at a single concentration (10 μM for the data of Table 1) or at a range of concentrations (such as from 1 μM up to 100 μM). At specific times after treatment at the given concentration of test compound, cellular RNAs are isolated from the treated cells, primary cells or tumors, which RNAs are indicative of expression of selected genes, including, but not limited to, the genes used herein. The cellular RNA is then divided and subjected to analysis that detects the presence and/or quantity of specific RNA transcripts, which transcripts may then be amplified for detection purposes using standard methodologies, such as, for example, reverse transcriptase polymerase chain reaction (RT-PCR), etc. The presence or absence, or levels, of specific RNA transcripts are determined from these measurements and a metric derived for the type and degree of response of the sample to the treated compound compared to control samples. One such procedure is shown in example 8 where test compound may or may not be present.
(§2) HT29 cells are grown to a density of 10^5 cells/cm^2 in Leibovitz's L-15 medium supplemented with 2 mM L-glutamine (90%) and 10% fetal bovine serum. The cells are collected after treatment with 0.25% trypsin, 0.02% EDTA at 37° C. for 2 to 5 minutes. The trypsinized cells are then diluted with 30 ml growth medium and plated at a density of 50,000 cells per well in a 96 well plate (200 μl/well). The following day, cells are treated with either compound buffer alone, or compound buffer containing a chemical agent to be tested, for 24 hours. The media is then removed, the cells lysed and the RNA recovered using the RNAeasy reagents and protocol obtained from Qiagen. […] Reverse transcription is then carried out at 48° C. for 30 minutes. The sample is then applied to a Perlin Elmer 7700 sequence detector and heat denatured for 10 minutes at 95° C. Amplification is performed through 40 cycles using 15 seconds annealing at 60° C. followed by a 60 second extension at 72° C. and 30 second denaturation at 95° C. Data files are then captured and the data analyzed with the appropriate baseline windows and thresholds.
(§3) For testing of the effects of a compound of Table 1, each compound was present at a concentration of 10 μM in the culture medium.
(§4) The quantitative difference between the target and reference genes is then calculated and a relative expression value determined for all of the samples used. This procedure is then repeated for each of the target genes in a given signature, or characteristic, set and the relative expression ratios for each pair of genes is determined (i.e., a ratio of expression is determined for each target gene versus each of the other genes for which expression is measured, where each gene's absolute expression is determined relative to the reference gene for each compound, or chemical agent, to be screened). The samples are then scored and ranked according to the degree of alteration of the expression profile in the treated samples relative to the control. The overall expression of the set of genes relative to the controls, as modulated by one chemical agent relative to another, is also readily ascertained. Chemical agents having the most effect on a given gene, or set of genes, are considered the most therapeutic or anti-neoplastic, depending on the tissues being studied. In each case, the agent was present in the cell culture at a concentration of ten micromolar.
(§5) The sets of genes, or signature sets, useful in the methods of the invention disclosed herein represent a set of genes expressed at a higher level in a cancer cell line derived from colon but not expressed at a higher level in normal colon (for example, genes 1, 2, 4-10 for the data of Table 1) or whose expression is higher in normal cells (for example, genes 3 and 11 for the data of Table 1) relative to the cancer cells. […]

[2] = tested on: Gene 2; assay: Gene modulating activity in colon cancer cells (RT-PCR RNA expression), Gene 2
Procedure: as §1
For example, Gene 2 was a gene that encodes a kallikrein. Tissue or glandular kallikreins are members of a large and highly conserved family of serine proteases that are central to many physiological processes. They are secreted protein-cleaving enzymes that process for example kininogen (local blood flow, sodium balance, inflammation, cell proliferation), growth factors (EGF, NGF, vasoactive peptide), or other substrates. The prostate antigens hK2 and PSA are members of this family. Diseases in which kallikreins have been implicated include acute pancreatitis, inflammatory arthritis and inflammatory bowel disease, sepsis, enterocolitis, arterial and salt-sensitive hypertension, blood coagulation disorders, scorpion and snake evenomation, infections and cancer. Thus, the chemical agents disclosed herein find use in the treatment and/or prevention of any of these diseases.
as §2, §3
The quantitative difference between the target and reference genes is then calculated and a relative expression value determined for all of the samples used. This procedure is then repeated for each of the target genes in a given signature, or characteristic, set and the relative expression ratios for each pair of genes is determined (i.e., a ratio of expression is determined for each target gene versus each of the other genes for which expression is measured, where each gene's absolute expression is determined relative to the reference gene for each compound, or chemical agent, to be screened). […]

[3] = tested on: Gene 5; assay: Gene modulating activity in colon cancer cells (RT-PCR RNA expression), Gene 5
Procedure: as §1, §2, §3, §4, §5

[4] = tested on: Gene 11; assay: Gene modulating activity in colon cancer cells (RT-PCR RNA expression), Gene 11
Procedure: as §1, §2, §3
as §4, with “In each case, the agent was present in the cell culture at a concentration of ten micromolar.” left out

[5] = tested on: Gene 6; assay: Gene modulating activity in colon cancer cells (RT-PCR RNA expression), Gene 6
Procedure: as §1, §2, §3, §4, §5

[6] = tested on: Gene 1; assay: Gene modulating activity in colon cancer cells (RT-PCR RNA expression), Gene 1
Procedure: as §1, §2, §3, §4, §5

[7] = tested on: Gene 10; assay: Gene modulating activity in colon cancer cells (RT-PCR RNA expression), Gene 10
Procedure: as §1, §2, §3, §4, §5

[8] = tested on: Gene 4; assay: Gene modulating activity in colon cancer cells (RT-PCR RNA expression), Gene 4
Procedure: as §1, §2, §3, §4, §5

[9] = tested on: Gene 9; assay: Gene modulating activity in colon cancer cells (RT-PCR RNA expression), Gene 9
Procedure: as §1, §2, §3, §4, §5

[10] = tested on: Gene 8; assay: Gene modulating activity in colon cancer cells (RT-PCR RNA expression), Gene 8
Procedure: as §1, §2, §3, §4, §5

[11] = tested on: Gene 3; assay: Gene modulating activity in colon cancer cells (RT-PCR RNA expression), Gene 3
Procedure: as §1, §2, §3, §4, §5

Compound	Gene 7 Folds of up (+) or down (−) regulatlon [1]	Gene 2 Folds of up (+) or down (−) regulatlon [2]	Gene 5 Folds of up (+) or down (−) regulatlon [3]	Gene 11 Folds of up (+) or down (−) regulatlon [4]	Gene 6 Folds of up (+) or down (−) regulatlon [5]	Gene 1 Folds of up (+) or down (−) regulatlon [6]	Gene 10 Folds of up (+) or down (−) regulatlon [7]	Gene 4 Folds of up (+) or down (−) regulatlon [8]	Gene 9 Folds of up (+) or down (−) regulatlon [9]	Gene 8 Folds of up (+) or down (−) regulatlon [10]	Gene 3 Folds of up (+) or down (−) regulatlon [11]
CC(C)CN(C(=O)c1ccccc1)C1CCCC1Sc1ccccc1 (stereo not drawn) [AV-96]	5.3 Folds	2.8 Folds	2.8 Folds	3.7 Folds	−4.9 Folds	3.5 Folds	1.9 Folds	2.8 Folds	2.5 Folds	2.8 Folds	3.2 Folds
CCCN(C(=O)c1ccccc1)C1CCCC1Sc1ccccc1 (stereo not drawn) [AV-221]	90.5 Folds	1.4 Folds	1.5 Folds	–	−1.1 Folds	64.0 Folds	−6.5 Folds	1.4 Folds	1.2 Folds	1.6 Folds	−3.5 Folds
CN(C(=O)C1CCC1)C1CCCCC1Sc1ccccc1 (stereo not drawn) [AV-283]	−3.7 Folds	−1.7 Folds	−1.5 Folds	−34.3 Folds	−3.5 Folds	−2.1 Folds	−3.0 Folds	−1.7 Folds	−3.7 Folds	−1.7 Folds	−4.6 Folds
CCCN(C(=O)Nc1ccc(-c2ccccc2)cc1)C1COCC1SC (stereo not drawn) [AV-916]	−1.2 Folds	−1.1 Folds	−1.2 Folds	−3.7 Folds	1.0 Folds	−2.1 Folds	−8.6 Folds	−1.3 Folds	−6.5 Folds	−3.0 Folds	−8.0 Folds
CSC1CCCC1NC(=O)Nc1cccc(Cl)c1 (stereo not drawn) [AV-988]	1.2 Folds	2.3 Folds	1.9 Folds	–	2.0 Folds	2.6 Folds	−4.6 Folds	1.9 Folds	1.3 Folds	1.7 Folds	−11.3 Folds
O=C(Nc1ccc(-c2ccccc2)cc1)N(Cc1ccccc1)C1CCCC1Sc1ccccc1 (stereo not drawn) [AV-1030]	−1.1 Folds	3.7 Folds	2.5 Folds	−4.6 Folds	1.4 Folds	2.1 Folds	−2.5 Folds	1.1 Folds	−2.6 Folds	−2.6 Folds	−1.1 Folds
COCCN(C(=O)COc1ccccc1)C1CCCC1Sc1ccccc1 (stereo not drawn) [AV-1241]	26.0 Folds	1.7 Folds	1.2 Folds	27.9 Folds	2.8 Folds	1.9 Folds	13.0 Folds	2.0 Folds	9.2 Folds	2.1 Folds	29.9 Folds
